The NIST ThermoML archive (doi:10.1016/j.fluid.2010.05.010)
Numbers after ± are expanded uncertainties.

Test: activity coefficient (dimensionless); of the first substance listed, at infinite dilution; xn = mol fraction of the nth substance listed
Settings: 101 kPa, Liquid, x1 = 0

activity coefficient (273.35 K, Inert gas stripping)	activity coefficient (283.15 K, Inert gas stripping)	activity coefficient (293.15 K, Inert gas stripping)	activity coefficient (298.15 K, Inert gas stripping)	activity coefficient (303.15 K, Inert gas stripping)	activity coefficient (313.15 K, Inert gas stripping)	activity coefficient (323.15 K, Inert gas stripping)	activity coefficient (333.15 K, Inert gas stripping)	activity coefficient (293.15 K, Headspace solid-phase microextraction)	activity coefficient (298.15 K, Headspace solid-phase microextraction)	activity coefficient (303.15 K, Headspace solid-phase microextraction)	SMILES
246 ± 1	299 ± 1	353 ± 1	374 ± 1	394 ± 1	408 ± 1	394 ± 1	388 ± 1				CCOC(=O)OCC [diethyl carbonate] + O
37.6 ± 0.2	43.8 ± 0.1	46.3 ± 0.1	48 ± 0.1	49.3 ± 0.1	50 ± 0.1	50.9 ± 0.1	50.3 ± 0.1				COC(=O)OC [dimethyl carbonate] + O
283 ± 1	321 ± 1	366 ± 1	380 ± 1	390 ± 1	403 ± 1	403 ± 1	394 ± 1	380 ± 1	389 ± 1	382 ± 1	C=C(C)C(=O)OC [methyl methacrylate] + O

SMILES	activity coefficient (273.35 K, Inert gas stripping)	activity coefficient (283.15 K, Inert gas stripping)	activity coefficient (293.15 K, Inert gas stripping)	activity coefficient (298.15 K, Inert gas stripping)	activity coefficient (303.15 K, Inert gas stripping)	activity coefficient (313.15 K, Inert gas stripping)	activity coefficient (323.15 K, Inert gas stripping)	activity coefficient (333.15 K, Inert gas stripping)	activity coefficient (293.15 K, Headspace solid-phase microextraction)	activity coefficient (298.15 K, Headspace solid-phase microextraction)	activity coefficient (303.15 K, Headspace solid-phase microextraction)
C=COC(C)=O [vinyl acetate] + O	150 ± 1	161 ± 1	177 ± 1	181 ± 1	187 ± 1	190 ± 1	194 ± 1	187 ± 1			
